Reference: ChEMBL document CHEMBL3880387, “Bis aromatic compounds for use as LTC4 synthase inhibitors” (2013)
≈ marks a conversion by molar mass, not a printed value.

Test: Thermodynamic solubility of the compound in monobasic potassium phosphate buffer at pH 7.4 after 24 hrs by LC-MS/MS analysis
Assay type: physicochemical
Details: read-out: Therm_solubility

- solubility thermodynamic at 24 h: 7 µM (≈ 3.87 µg/mL)
Compound: CN(c1ccc(Cl)cc1)c1ccc(C(=O)c2ccc(C(=O)C3(c4ccccc4)CCCCC3)c(C(=O)O)c2)nc1
